Measurements published in patent publication US10086335B2, “Composition and method for biofouling inhibition of membrane separation device” (Ecolab USA Inc., priority 2013, dated 2018).

Assays:
[1] = Total chlorine and free chlorine concentration by DPD method; type: physicochemical; conditions: for free chlorine (FRC) concentration: sulfamic acid:sodium hypochlorite 1.2:1, pH >12
Description: The total chlorine concentration (amount) can be detected according to the following method. The combined chlorine can oxidize the iodide into iodine. The iodine and free chlorine can react with DPD (N,N-Diethyl-p-phenylenediamine) to form a red substance, and which can be used to represent the concentration of the total chlorine (using the absorbance obtained at 530 nm measurement to represent the concentration of total chlorine). The above free chlorine concentration (amount) may be determined by the following method. The free chlorine which may exist in the form of hypochlorous acid or ions of hypochlorite can react with DPD (N, N-Diethyl-p-phenylenediamine) indicator rapidly to form a pink-colored substance, and the strength of such color can be used to indicate the amount of free chlorine, for example the concentration of free chlorine is determined by the measurements of absorbance on 530 nm. The combined chlorine concentration in water is calculated by subtracting free chlorine concentration from total chlorine concentration (i.e., TRC-FRC). In the present invention, TRC and FRC are measured for example by HACH DR2800 spectrophotometer.
In order to further reduce the FRC, the second stabilizer ammonium sulfate was used in the present example. In the present example, 67 g sodium hypochlorite and 13 g sulfamic acid (sulfamic acid ≥99.5%, AR, Sinopharm Chemical Reagent Co. Ltd.) were first added to 20 g water. The molar ratio between sulfamic acid and sodium hypochlorite was 1.2 to 1. Then the pH was adjusted to more than 12 by sodium hydroxide. According to the addition amount of sodium hypochlorite, the different molar ratios of second stabilizer ammonium sulfates were added. After the solution was uniformly mixed, DPD and iodine were used to determine the TC concentration and DPD was used to determine the FRC concentration.
In the present example, the second stabilizer ammonium sulfate was used in dilute solution to research the reducing effect on FRC. In the present example, 67 g sodium hypochlorite and 13 g sulfamic acid (sulfamic acid ≥99.5%, AR, Sinopharm Chemical Reagent Co. Ltd.) were first added to 3020 g water. The molar ratio between sulfamic acid and sodium hypochlorite was 1.2 to 1. Comparing to the concentration of the sodium hypochlorite and sulfamic acid of the example 1, that of the example 2 was diluted to about 30 times. Then the pH was adjusted to more than 12 by sodium hydroxide. According to the addition amount of sodium hypochlorite, the different molar ratios of second stabilizer ammonium sulfates were added. After the solution was mixed uniformly, DPD and iodine were used to determine the TC concentration and DPD was used to determine the FRC concentration.

[2] = system: floating bacteria in water; experiment: Bactericidal effect on the bacteria in water (Total Bacteria Count); conditions: raw water; total chlorine 2 ppm and 10 ppm; 3 hours and 24 hours; FIG. 3
Method: This example is mainly focused on using the present method or combination to inhibit the floating bacteria in water. The raw water without adding any biocides was used as the control group. The total chlorine concentration in water was controlled at 2 ppm and 10 ppm, separately. Sodium hypochlorite and two kinds of stabilizers were added to the raw water and sample obtained was used as the experimental group (dual stabilizers). Moreover, the group wherein only sodium hypochlorite was added was the control experimental group 1 (Cl2) and the group wherein sodium hypochlorite and one stabilizer were added to the raw water was the control experimental group 2 (single stabilizer). In the control experimental group 1 and 2, the total chlorine concentrations were controlled at 2 ppm and 10 ppm, separately. The addition method of the above substances and the substances used were identical to the examples 1 or 2. […] After placing the control group, the control experimental group 1, 2 and the experimental group for 3 hours and 24 hours, the number of the bacteria in the water of these samples were determined and compared. The bacterial number was indicated by the Total Bacteria Count (sometimes abbreviated as TBC in the following description), which was determined by referencing the method of 3M™ Petrifilm™ Aerobic Count Plates.

With `N.N.O=S(=O)(O)O` [second stabilizer, ammonium sulfate] the “free chlorine (FRC) concentration” value ([1]; concentrated solution, 0.3 moles second stabilizer per 1 mole sodium hypochlorite, reduced from 1200 ppm, FIG. 1) was “about 40 ppm”, the “effect on total chlorine” value ([1]; concentrated solution, 0.3 moles second stabilizer per 1 mole sodium hypochlorite, FIG. 1) was “without affecting the total chlorine” and the “free chlorine (FRC) concentration” value ([1]; dilute solution, 0.4 moles second stabilizer per 1 mole sodium hypochlorite, reduced from about 50 ppm, FIG. 2) was “about 20 ppm”. The “effect on total chlorine amount” value ([1]; dilute solution, 0.4 moles second stabilizer per 1 mole sodium hypochlorite, FIG. 2) was “without affecting the total chlorine amount”.

In the case of `OCl` [sodium hypochlorite], the “bactericidal effect (Total Bacteria Count)” value [2] is reported as “strongest bactericidal effect”.
